Common to all, as to assay type: cell-based
In one assay the test system is E. coli DH5α. Description: Antibacterial activity: MIC and growth curve against E. coli DH5α in 96-well plate. To be noted: minimal inhibitory concentration against E. coli DH5α; 96-well plate, 5×10^5 CFU/mL, 37° C., judged after 8 h. Summed up: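 MIC taken as lowest protein level with no bacterial growth, tracked by A600 every 30 min during 37 °C, 175 rpm culture. Two-fold protein series 50-12.5 μg/mL final, triplicate wells, against 5×10^5 CFU/mL of LB-washed mid-log cells.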

A further assay concerns Klebsiella pneumonia. Description: MIC against Gram-negative bacteria: Klebsiella pneumonia. To be noted: 5×10^5 CFU/mL; for MIC against K. pneumonia: Klebsiella pneumonia. The essentials:
(§1)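 LB broth cultures at McFarland 0.5, spun down, resuspended, diluted to 5×10^5 CFU/mL final. Two-fold serial dilutions of purified human EGF domain proteins, triplicate. 37° C, 175 rpm shaking. Endpoint: no visible growth.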

In another assay the test system is Citrobacter diversus. Description: MIC against Gram-negative bacteria: Citrobacter diversus. To be noted: 5×10^5 CFU/mL; for MIC against C. diversus: Citrobacter diversus. Summed up:
as §1

The next assay concerns Proteus mirabilis. As to the kind of experiment: MIC against Gram-negative bacteria: Proteus mirabilis. To be noted: 5×10^5 CFU/mL; for MIC against P. mirabilis: Proteus mirabilis. The essentials: as §1
The test system of a further assay is Moraxella catarrhalis. As to the kind of experiment: MIC against Gram-negative bacteria: Moraxella catarrhalis. To be noted: 5×10^5 CFU/mL; for MIC against M. catarrhalis: Moraxella catarrhalis. Summed up: as §1
In a further assay the test system is Pseudomonas aeruginosa. Description: MIC against Gram-negative bacteria: Pseudomonas aeruginosa. To be noted: 5×10^5 CFU/mL; for MIC against P. aeruginosa: Pseudomonas aeruginosa. The essentials: as §1
The next assay deals with Aeromonas hydrophila. Description: MIC against Gram-negative bacteria: Aeromonas hydrophila. The note with it: 5×10^5 CFU/mL; for MIC against A. hydrophila: Aeromonas hydrophila. Summed up: as §1
The subject of another assay is Proteus vulgaris. As to the kind of experiment: MIC against Gram-negative bacteria: Proteus vulgaris. To be noted: 5×10^5 CFU/mL; for MIC against P. vulgaris: Proteus vulgaris. The essentials: as §1
The next assay has as its system Serratia marcescens. As to the kind of experiment: MIC against Gram-negative bacteria: Serratia marcescens. The note with it: 5×10^5 CFU/mL; for MIC against S. marcescens: Serratia marcescens. The essentials: as §1
Another assay relates to E. coli BL21. Description: MIC against Gram-negative bacteria: E. coli BL21. The note with it: 5×10^5 CFU/mL. The essentials:
as §1

The test system of the next assay is Enterobacter cloacae. Description: MIC against Gram-negative bacteria: Enterobacter cloacae. The note with it: 5×10^5 CFU/mL; for MIC against E. cloacae: Enterobacter cloacae. The essentials: as §1
[1] abbreviates: E. coli BL21, 10 h cultivation at 37° C.
The mark [2] stands for this setting: 10 h cultivation at 37° C., two-fold serial dilution.
Setting [3] is: E. coli BL21, 96-well plate, 37° C., 10 h.

As a reminder, the MIC is the least concentration at which growth counts as inhibited. Higher therefore signals a less susceptible organism.

In the assay on E. coli DH5α, “PRT1371 (GTRACPGDCRGRGRCVDGRCVCNPGFTGEDC; listed as Homo sapiens)” showed a minimum inhibitory concentration (MIC) of 50 µg/mL. The “MIC against K. pneumonia” value against Klebsiella pneumonia (10 h cultivation at 37° C.) was found to be 12.5 µg/mL. Further, in the assay with Citrobacter diversus (10 h cultivation at 37° C.), the “MIC against C. diversus” value is 100 µg/mL. Further, the “MIC against P. mirabilis” value with Proteus mirabilis (10 h cultivation at 37° C.) amounted to 12.5 µg/mL. Besides, in the assay with Moraxella catarrhalis (10 h cultivation at 37° C.), the “MIC against M. catarrhalis” value was 12.5 µg/mL. Further, in the assay with Pseudomonas aeruginosa (10 h cultivation at 37° C.), the “MIC against P. aeruginosa” value came to 12.5 µg/mL. In addition, the “MIC against A. hydrophila” value with Aeromonas hydrophila (10 h cultivation at 37° C.) worked out at 12.5 µg/mL. Moreover, the “MIC against P. vulgaris” value with Proteus vulgaris (10 h cultivation at 37° C.) was determined as 12.5 µg/mL. In addition, in the assay with Serratia marcescens (10 h cultivation at 37° C.), the “MIC against S. marcescens” value was determined as 12.5 µg/mL. The “MIC against E. coli BL21” value against E. coli BL21 (setting [1]) was 12.5 µg/mL. The “MIC against E. cloacae” value in the assay with Enterobacter cloacae (10 h cultivation at 37° C.) worked out at 12.5 µg/mL.

With “PRT1191 (AEHACTSNPCANGGSCHEVPSGFECHCPSGWSGPTCA; listed as Homo sapiens)”, the MIC with E. coli DH5α came out at 12.5 µg/mL. Moreover, the “MIC K. pneumonia” value in the assay with Klebsiella pneumonia (setting [2]) worked out at 25 µg/mL. In addition, in the assay on Citrobacter diversus (setting [2]), the “MIC C. diversus” value stood at 12.5 µg/mL. The “MIC P. mirabilis” value with Proteus mirabilis (setting [2]) was found to be 25 µg/mL. The “MIC M. catarrhalis” value against Moraxella catarrhalis (setting [2]) stood at 50 µg/mL. For the same substance, the “MIC P. aeruginosa” value in the assay on Pseudomonas aeruginosa (setting [2]) was 50 µg/mL. For the same substance, the “MIC A. hydrophila” value with Aeromonas hydrophila (setting [2]) is 25 µg/mL. Also, the “MIC P. vulgaris” value in the assay with Proteus vulgaris (setting [2]) is 12.5 µg/mL. Moreover, the “MIC S. marcescens” value in the assay with Serratia marcescens (setting [2]) is 50 µg/mL. Further, the “MIC E. coli BL21” value in the assay on E. coli BL21 (setting [2]) was 25 µg/mL. Also, the “MIC E. cloacae” value against Enterobacter cloacae (setting [2]) was 25 µg/mL.

“PRT1196 (DVDLCEPSPCRNGARCYNLEGDYYCACPDDFGGKNCS; listed as Homo sapiens)” registered a minimal inhibitory concentration (MIC) in the assay with E. coli DH5α of 12.5 µg/mL. The “MIC against K. pneumonia” value against Klebsiella pneumonia (96-well plate, 37° C., 10 h) was 25 µg/mL. The “MIC against C. diversus” value against Citrobacter diversus (96-well plate, 37° C., 10 h) was determined as 50 µg/mL. The “MIC against P. mirabilis” value in the assay with Proteus mirabilis (96-well plate, 37° C., 10 h) turned out to be 12.5 µg/mL. In the assay on Moraxella catarrhalis (96-well plate, 37° C., 10 h), the “MIC against M. catarrhalis” value was determined as 25 µg/mL. Also, the “MIC against P. aeruginosa” value against Pseudomonas aeruginosa (96-well plate, 37° C., 10 h) is 12.5 µg/mL. For the same substance, the “MIC against A. hydrophila” value against Aeromonas hydrophila (96-well plate, 37° C., 10 h) was 25 µg/mL. Besides, in the assay with Proteus vulgaris (96-well plate, 37° C., 10 h), the “MIC against P. vulgaris” value amounted to 25 µg/mL. For the same substance, the “MIC against S. marcescens” value against Serratia marcescens (96-well plate, 37° C., 10 h) stood at 50 µg/mL. In addition, in the assay on E. coli BL21 (setting [3]), the “MIC against E. coli BL21” value was 50 µg/mL. In the assay with Enterobacter cloacae (96-well plate, 37° C., 10 h), the “MIC against E. cloacae” value was determined as 25 µg/mL.

In the assay on E. coli DH5α, “PRT202 (KSTNCSSKCKGHAVCDHELQCQCEEGWIPPDCD; listed as Homo sapiens)” came in with an MIC of 25 µg/mL. For the same substance, in the assay with Klebsiella pneumonia (K. pneumonia, 10 h cultivation at 37° C.), the “MIC (μg/mL) K. pneumonia” value worked out at 12.5 µg/mL. In the assay on Citrobacter diversus (C. diversus, 10 h cultivation at 37° C.), the “MIC (μg/mL) C. diversus” value worked out at 12.5 µg/mL. Moreover, the “MIC (μg/mL) P. mirabilis” value against Proteus mirabilis (P. mirabilis, 10 h cultivation at 37° C.) came out at 25 µg/mL. Besides, the “MIC (μg/mL) M. catarrhalis” value in the assay with Moraxella catarrhalis (M. catarrhalis, 10 h cultivation at 37° C.) is 12.5 µg/mL. The “MIC (μg/mL) P. aeruginosa” value against Pseudomonas aeruginosa (P. aeruginosa, 10 h cultivation at 37° C.) worked out at 12.5 µg/mL. Also, in the assay on Aeromonas hydrophila (A. hydrophila, 10 h cultivation at 37° C.), the “MIC (μg/mL) A. hydrophila” value came to 12.5 µg/mL. Further, in the assay with Proteus vulgaris (P. vulgaris, 10 h cultivation at 37° C.), the “MIC (μg/mL) P. vulgaris” value was 12.5 µg/mL. In the assay on Serratia marcescens (S. marcescens, 10 h cultivation at 37° C.), the “MIC (μg/mL) S. marcescens” value turned out to be 25 µg/mL. In addition, the “MIC (μg/mL) E. coli BL21” value in the assay on E. coli BL21 (setting [1]) came to 12.5 µg/mL. Also, the “MIC (μg/mL) E. cloacae” value in the assay on Enterobacter cloacae (E. cloacae, 10 h cultivation at 37° C.) came to 12.5 µg/mL.

As to “PRT1213 (HSDYCSQNTCLNGGKCSWTHGAGYVCKCPPQFSGKHCE; listed as Homo sapiens)”, the MIC in the assay on E. coli DH5α is 25 µg/mL. Besides, the “MIC against K. pneumonia” value against Klebsiella pneumonia (96-well plate, 37° C., 10 h) was 25 µg/mL. Moreover, in the assay with Citrobacter diversus (96-well plate, 37° C., 10 h), the “MIC against C. diversus” value came out at 25 µg/mL. The “MIC against P. mirabilis” value in the assay on Proteus mirabilis (96-well plate, 37° C., 10 h) was determined as 25 µg/mL. For the same substance, in the assay with Moraxella catarrhalis (96-well plate, 37° C., 10 h), the “MIC against M. catarrhalis” value was found to be 12.5 µg/mL. For the same substance, the “MIC against P. aeruginosa” value in the assay on Pseudomonas aeruginosa (96-well plate, 37° C., 10 h) was 50 µg/mL. Further, the “MIC against A. hydrophila” value with Aeromonas hydrophila (96-well plate, 37° C., 10 h) is 50 µg/mL. The “MIC against P. vulgaris” value against Proteus vulgaris (96-well plate, 37° C., 10 h) amounted to 50 µg/mL. Moreover, in the assay on Serratia marcescens (96-well plate, 37° C., 10 h), the “MIC against S. marcescens” value amounted to 25 µg/mL. For the same substance, the “MIC against E. coli BL21” value against E. coli BL21 (setting [3]) is 25 µg/mL. For the same substance, in the assay with Enterobacter cloacae (96-well plate, 37° C., 10 h), the “MIC against E. cloacae” value was 100 µg/mL.

The values above are taken from patent publication US9833497B2, “Human originated EGF domain proteins and use of the same” (CHENGDU SOURCEBIO LIMITED-LIABILITY COMPANY, priority 2013, dated 2017).
